From patent US12617783B2, “Heterocyclic GLP-1R agonists” (BIOMEA FUSION, INC., priority 2024, dated 2026) come the findings set out here.

What is called EC50 is the concentration that produces a half-maximal response.

The assay deals with T1, human GLP-1R (Homo sapiens, UniProt P43220).
T1 construct: host or cells: HEK293
T1 sequence (P43220 24-463): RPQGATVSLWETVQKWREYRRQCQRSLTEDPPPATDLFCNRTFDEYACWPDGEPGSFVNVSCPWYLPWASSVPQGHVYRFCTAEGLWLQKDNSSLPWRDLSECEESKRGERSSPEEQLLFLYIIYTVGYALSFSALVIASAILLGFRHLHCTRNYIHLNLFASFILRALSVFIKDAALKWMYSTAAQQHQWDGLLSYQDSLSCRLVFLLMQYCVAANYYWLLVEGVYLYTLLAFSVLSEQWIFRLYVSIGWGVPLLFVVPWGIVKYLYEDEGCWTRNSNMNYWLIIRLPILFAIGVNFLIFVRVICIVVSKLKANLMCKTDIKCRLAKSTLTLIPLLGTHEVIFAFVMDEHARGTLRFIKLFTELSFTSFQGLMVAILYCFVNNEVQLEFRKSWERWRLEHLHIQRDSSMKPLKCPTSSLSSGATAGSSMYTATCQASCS
Nature of the assay: GLP-1R cAMP assay (Example B1a, HTRF, 30 min at room temperature). The following applies: cAMP accumulation in HEK293 expressing human GLP-1R, no BETP, 30 min room temperature (Method B1a, compounds ID 1-609), Table 1; read-out: EC50. The format is cell-based. The method, boiled down: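 Competitive HTRF read-out of cAMP after 30 min room-temperature stimulation, BETP absent, of human GLP-1R-HEK293 cells (1,000/well) in HEPES buffer with 500 μM IBMX and 0.1% BSA. Activation normalised to GLP-1(7-37) positive control. EC50 from 4-parameter non-linear regression.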
For orientation: cAMP levels reflect the balance of adenylyl cyclase and phosphodiesterase activity.
`Cc1cc(-n2nc3c(c2-n2ccn(-c4ccc5c(cnn5C)c4F)c2=O)C2CCC(C3)N2C(=O)c2cc3cc([C@H]4CCOC(C)(C)C4)ccc3n2[C@@]2(c3noc(=O)[nH]3)C[C@@H]2C)cc(C)c1F` (stereo partly drawn) [Compound 32, 3-((1S,2S)-1-(5-((S)-2,2-dimethyltetrahydro-2H-pyran-4-yl)-2-(3-(3-(4-fluoro-1-methyl-1H-indazol-5-yl)-2-oxo-2,3-dihydro-1H-imidazol-1-yl)-2-(4-fluoro-3,5-dimethylphenyl)-2,4,5,6,7,8-hexahydro-4,7-epiminocyclohepta [c]pyrazole-9-carbonyl)-1H-indol-1-yl)-2-methylcyclopropyl)-1,2,4-oxadiazol-5 (4H)-one]: the EC50 was found to be 92.6 nM.

For the compound `Cc1cc(-n2nc3c(c2-n2ccn(-c4ccc5c(cnn5C)c4F)c2=O)[C@@H]2CC[C@H](C3)N2C(=O)c2cc3cc(C4CCOC5(CC5)C4)ccc3n2[C@@]2(c3noc(=O)[nH]3)C[C@@H]2C)cc(C)c1F` (stereo partly drawn) [Compound 213, 3-((1S,2S)-1-(2-((4S,7R)-3-(3-(4-fluoro-1-methyl-1H-indazol-5-yl)-2-oxo-2,3-dihydro-1H-imidazol-1-yl)-2-(4-fluoro-3,5-dimethylphenyl)-2,4,5,6,7,8-hexahydro-4,7-epiminocyclohepta [c]pyrazole-9-carbonyl)-5-(4-oxaspiro[2.5]octan-7-yl)-1H-indol-1-yl)-2-methylcyclopropyl)-1,2,4-oxadiazol-5 (4H)-one], the EC50 turned out to be 81.2 nM.

For the compound `Cc1cc(-n2nc3c(c2-n2ccn(-c4ccc5c(cnn5C)c4F)c2=O)[C@H]2CC[C@@H](CC3)N2C(=O)c2cc3cc([C@H]4CCOC(C)(C)C4)ccc3n2[C@@]2(c3noc(=O)[nH]3)C[C@@H]2C)cc(C)c1F` [Compound 524, 3-[(1S,2S)-1-[5-[(4S)-2,2-dimethyltetrahydropyran-4-yl]-2-[(1R,9S)-4-(4-fluoro-3,5-dimethyl-phenyl)-3-[3-(4-fluoro-1-methyl-indazol-5-yl)-2-oxo-imidazol-1-yl]-4,5,12-triazatricyclo[7.2.1.02,6]dodeca-2,5-diene-12-carbonyl]indol-1-yl]-2-methyl-cyclopropyl]-4H-1,2,4-oxadiazol-5-one], the concentration giving a half-maximal response (EC50) is not below 10000 nM.

Regarding `Cc1cc(-n2nc3c(c2-n2ccn(-c4ccc5c(cnn5C)c4F)c2=O)[C@@H]2CC[C@H](C3)N2C(=O)c2cc3cc([C@H]4CCOC(C)(C)C4)ccc3n2C(=O)c2noc(=O)[nH]2)cc(C)c1F` [Compound 122, 3-[5-[(4S)-2,2-dimethyltetrahydropyran-4-yl]-2-[(1S,8R)-4-(4-fluoro-3,5-dimethyl-phenyl)-3-[3-(4-fluoro-1-methyl-indazol-5-yl)-2-oxo-imidazol-1-yl]-4,5,11-triazatricyclo[6.2.1.02,6]undeca-2,5-diene-11-carbonyl]indole-1-carbonyl]-4H-1,2,4-oxadiazol-5-one], the EC50 was more than 10000 nM.

For `Cc1cc(-n2nc3c(c2-n2ccn(-c4ccc5c(cnn5C)c4F)c2=O)[C@@H]2CC[C@H](C3)N2C(=O)c2cc3cc([C@H]4CCOC(C)(C)C4)ccc3n2[C@@]2(C(=O)NS(=O)(=O)N(C)C)C[C@@H]2C)cc(C)c1F` [Compound 205, cis-(1S,2S)-N-(dimethylsulfamoyl)-1-[5-[(4S)-2,2-dimethyltetrahydropyran-4-yl]-2-[(1S,8R)-4-(4-fluoro-3,5-dimethyl-phenyl)-3-[3-(4-fluoro-1-methyl-indazol-5-yl)-2-oxo-imidazol-1-yl]-4,5,11-triazatricyclo[6.2.1.02,6]undeca-2,5-diene-11-carbonyl]indol-1-yl]-2-methyl-cyclopropanecarboxamide], the EC50 was more than 10000 nM.
